Measured values taken from article PMC3517478 (BMC Neurology, 2012).
Changes are numbered by the printed parent chain. Several values for one entry are separate records, joined by “and”; a condition that tells them apart may be missing. Identical values can stand only once.

Key:
Test in all cases: Whole-cell patch-clamp, positive allosteric modulation of glycine (EC20) induced currents
Format in all cases: cell-based
[1] = target: T1, human α1-GlyR (WT) expressed in HEK 293 cells (Homo sapiens, UniProt P23415); design: expressed in transfected cells; host or cells: HEK 293 (transient, electroporation; pCIS2 vector; co-transfected EGFP as a separate marker)
T1 sequence (P23415 29-457): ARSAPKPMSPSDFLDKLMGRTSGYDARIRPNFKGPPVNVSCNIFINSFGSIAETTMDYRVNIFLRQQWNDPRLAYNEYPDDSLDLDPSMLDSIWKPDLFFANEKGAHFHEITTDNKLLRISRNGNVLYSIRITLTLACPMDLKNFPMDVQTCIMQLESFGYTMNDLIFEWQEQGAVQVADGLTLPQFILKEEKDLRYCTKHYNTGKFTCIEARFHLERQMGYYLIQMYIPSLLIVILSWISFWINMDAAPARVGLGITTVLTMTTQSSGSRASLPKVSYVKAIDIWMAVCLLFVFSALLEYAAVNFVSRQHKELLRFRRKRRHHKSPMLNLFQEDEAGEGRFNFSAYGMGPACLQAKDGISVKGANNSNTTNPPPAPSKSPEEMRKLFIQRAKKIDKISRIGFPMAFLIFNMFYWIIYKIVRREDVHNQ
Method: (§1) Drug-containing vials were vigorously vortexed for 30min.
(§2) A new cell was used for each protocol and at least four different experiments were performed for each condition. The concentration of the diluent EtOH corresponding to the highest drug concentration used was 17150 μM.
(§3) Currents were filtered at 2 kHz.
(§4) Currents were normalized to their own maximum response.

[2] = target: T2, human α1R271K-GlyR expressed in HEK 293 cells (Homo sapiens, UniProt P23415, R299K); design: expressed in transfected cells; host or cells: HEK 293 (transient, electroporation; pcDNA1amp vector); details: R271K
T2 sequence (P23415 29-457 R299K): T1 sequence (P23415 29-457) with R271K
Method: as §1, §2, §3, §4

[3] = target: T3, human α1R271Q-GlyR expressed in HEK 293 cells (Homo sapiens, UniProt P23415, R299Q); design: expressed in transfected cells; host or cells: HEK 293 (transient, electroporation; pcDNA1amp vector); details: R271Q
T3 sequence (P23415 29-457 R299Q): T1 sequence (P23415 29-457) with R271Q
Method: as §1, §2, §3, §4

[4] = target: T4, human α1S267I-GlyR expressed in HEK 293 cells (Homo sapiens, UniProt P23415, S295I); design: expressed in transfected cells; host or cells: HEK 293 (transient, electroporation; pcDNA1amp vector); details: S267I
T4 sequence (P23415 29-457 S295I): T1 sequence (P23415 29-457) with S267I
Method: as §1, §2, §3, §4

How did the “increased potency to positively modulate glycine induced chloride currents in comparison to propofol” value ([1]; WT glycine receptors, propofol value from ref 21) turn out when “4-chloro-2,6-dimethylphenol [4-chloropropofol]” was run?
The value was “more than 1000 fold”.

What about the “positive allosteric modulation nH ± SEM” value ([1]; WT, EC20 glycine 20 μM) of the same substance?
The value was 2.0 ± 2.8.

What about the EC50 ([1]; WT, co-applied with sub-saturating (EC20) glycine 20 μM, read-out: positive allosteric modulation EC50 ± SEM) of the same substance?
Its EC50 is 80 ± 20 pM.

What about the “positive allosteric modulation, potentiation [% of peak current amplitude] ± SEM” value ([1]; WT, maximal positive allosteric modulation, EC20 glycine 20 μM) of the same substance?
The value was 269 ± 88%.

What about the “positive allosteric modulation nH ± SEM” value ([2]; EC20 glycine 100 μM) of the same substance?
The value was 0.3 ± 0.1.

What about the EC50 ([2]; co-applied with sub-saturating (EC20) glycine 100 μM, read-out: positive allosteric modulation EC50 ± SEM) of the same substance?
The EC50 was 6 ± 2.3 µM.

What about the “positive allosteric modulation, potentiation [% of peak current amplitude] ± SEM” value ([2]; maximal positive allosteric modulation, EC20 glycine 100 μM) of the same substance?
Its value is 231 ± 174%.

And the “positive allosteric modulation nH ± SEM” value ([3]; EC20 glycine 10 mM)?
Its value is 0.9 ± 1.3.

What about the EC50 ([3]; co-applied with sub-saturating (EC20) glycine 10 mM, read-out: positive allosteric modulation EC50 ± SEM) of the same substance?
The EC50 was 1.3 ± 0.6 µM.

What about the “positive allosteric modulation, potentiation [% of peak current amplitude] ± SEM” value ([3]; maximal positive allosteric modulation, EC20 glycine 10 mM) of the same substance?
The value was 260 ± 52%.

What about the “positive allosteric modulation nH ± SEM” value ([4]; EC20 glycine 30 μM) of the same substance?
Its value is 0.7 ± 0.3.

What about the EC50 ([4]; co-applied with sub-saturating (EC20) glycine 30 μM, read-out: positive allosteric modulation EC50 ± SEM) of the same substance?
Its EC50 is 55 µM and 55.1 µM.

And the “positive allosteric modulation, potentiation [% of peak current amplitude] ± SEM” value ([4]; maximal positive allosteric modulation, EC20 glycine 30 μM)?
The value was 128 ± 14%.
